Test results from PubChem BioAssay (NCI).
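Tested at 5 concentrations; 48 h exposure; 96-well plates; endpoints linearly interpolated, else capped at highest concentration. TGI: total growth inhibition.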

Columns and labels:
Test in all cases: inhibition of tumour cell growth, NCI panel, 48 h
KM12 colon = tested on: KM12 colon
SW-620 colon = tested on: SW-620 colon
OVCAR-5 ovarian = tested on: OVCAR-5 ovarian
SN12C renal = tested on: SN12C renal
BT-549 breast = tested on: BT-549 breast
SK-MEL-2 melanoma = tested on: SK-MEL-2 melanoma
NCI/ADR-RES ovarian = tested on: NCI/ADR-RES ovarian
TK-10 renal = tested on: TK-10 renal
MCF7 breast = tested on: MCF7 breast
NCI-H522 lung = tested on: NCI-H522 lung
HCC-2998 colon = tested on: HCC-2998 colon
HS 578T breast = tested on: HS 578T breast
786-0 renal = tested on: 786-0 renal
NCI-H460 lung = tested on: NCI-H460 lung
SF-268 CNS = tested on: SF-268 CNS
IGROV1 ovarian = tested on: IGROV1 ovarian
SR leukemia = tested on: SR leukemia
HOP-92 NSCLC = tested on: HOP-92 NSCLC
NCI-H226 lung = tested on: NCI-H226 lung

| SMILES | TGI (KM12 colon) | TGI (SW-620 colon) | TGI (OVCAR-5 ovarian) | TGI (SN12C renal) | TGI (BT-549 breast) | TGI (SK-MEL-2 melanoma) | TGI (NCI/ADR-RES ovarian) | TGI (TK-10 renal) | TGI (MCF7 breast) | TGI (NCI-H522 lung) | TGI (HCC-2998 colon) | TGI (HS 578T breast) | TGI (786-0 renal) | TGI (NCI-H460 lung) | TGI (SF-268 CNS) | TGI (IGROV1 ovarian) | TGI (SR leukemia) | TGI (HOP-92 NSCLC) | TGI (NCI-H226 lung) |
| --- | --- | --- | --- | --- | --- | --- | --- | --- | --- | --- | --- | --- | --- | --- | --- | --- | --- | --- | --- |
| CCOC(=O)c1c(C)nc2c1c(CN(C)C)c(O)c1[nH]c(C)c(C)nc12 | > 100 µM | 95.2 µM | 94 µM | 38.4 µM | 76 µM | 43.8 µM | 76.6 µM | 72.8 µM | 52.1 µM | 42.7 µM | 51 µM | 70.8 µM | 49.5 µM | 61.1 µM | 93.1 µM | > 100 µM | 51.5 µM | 96.6 µM | 62.1 µM |
| O=C(NC1CCCCC1NC(c1ccccc1)(c1ccccc1)c1ccccc1)C(=O)NC1CCCCC1NC(c1ccccc1)(c1ccccc1)c1ccccc1 (stereo not given) | > 100 µM | > 100 µM | > 100 µM | > 100 µM | > 100 µM | > 100 µM | > 100 µM | > 100 µM | > 100 µM | > 100 µM | > 100 µM | 72.5 µM | > 100 µM | > 100 µM | > 100 µM | > 100 µM | > 100 µM | 60.5 µM | > 100 µM |
| COC1=CC(=O)C2=C(C1=O)[C@H]1CC[C@]3(C)[C@@H](O)CC[C@H]3[C@@H]1CC2 | 32.3 µM | > 100 µM | 33.6 µM | 30.6 µM | 31.8 µM | 26.8 µM | 84 µM | 63.8 µM | 30.7 µM | 31.8 µM | 42.8 µM | 42.7 µM | 37.8 µM | 35.8 µM | 31 µM | 44.7 µM | 55.4 µM | 37.5 µM | 31.5 µM |
| COc1cc(C2SCC(=O)N2c2cccc(Cl)c2)cc(OC)c1OC (stereo not given) | > 100 µM | > 100 µM | > 100 µM | > 100 µM | > 100 µM | > 100 µM | > 100 µM | > 100 µM | > 100 µM | > 100 µM | > 100 µM | > 100 µM | > 100 µM | > 100 µM | > 100 µM | > 100 µM | > 100 µM | > 100 µM | > 100 µM |
| CC1(/C=C/CCSc2ccccc2)CC(=O)C2CC1C2(C)C (stereo not given) | 54.4 µM | > 100 µM | > 100 µM | 45.6 µM | 42.1 µM | > 55.9 µM | > 61.8 µM | > 70.1 µM | > 100 µM | 52.3 µM | > 73.5 µM | > 100 µM | > 54.6 µM | 71.6 µM | > 100 µM | 53.5 µM | 16.9 µM | > 75.4 µM | > 100 µM |
